Laboratory results as given in patent US9260408B2, “Dihydroquinoline-2-one derivatives” (Hoffmann-La Roche Inc., priority 2011, dated 2016).

Tests used:
human CYP11B1 = target: T1, human CYP11B1 (Homo sapiens, UniProt P15538); experiment: G-402 cellular enzyme assay, human CYP11B1 (cortisol release, HTRF); format: cell-based; details: G-402 cells expressing human CYP11B1; 1 μM Deoxycortisol
T1 construct: expressed in transfected cells
T1 sequence (P15538 25-503): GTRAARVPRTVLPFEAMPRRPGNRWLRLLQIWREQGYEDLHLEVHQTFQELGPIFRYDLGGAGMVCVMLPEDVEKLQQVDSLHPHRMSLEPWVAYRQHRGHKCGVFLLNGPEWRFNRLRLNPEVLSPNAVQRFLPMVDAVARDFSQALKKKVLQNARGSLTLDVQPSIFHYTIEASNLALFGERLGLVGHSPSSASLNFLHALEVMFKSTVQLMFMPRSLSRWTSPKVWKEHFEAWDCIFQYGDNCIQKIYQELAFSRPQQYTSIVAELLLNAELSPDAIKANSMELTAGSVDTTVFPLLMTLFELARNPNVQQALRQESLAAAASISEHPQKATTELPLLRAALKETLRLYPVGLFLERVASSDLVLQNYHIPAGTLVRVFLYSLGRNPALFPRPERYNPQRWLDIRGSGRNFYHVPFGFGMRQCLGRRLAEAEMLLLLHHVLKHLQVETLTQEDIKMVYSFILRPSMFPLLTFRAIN
Method in brief: (§1)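 G-402 cells stably expressing human CYP11B2 or CYP11B1, in DMEM/F12 with 2.5% charcoal-treated FCS, were incubated 16 h with compound plus 1 μM deoxycorticosterone (CYP11B2) or 1 μM deoxycortisol (CYP11B1). Aldosterone or cortisol in the supernatant measured by HTRF; EC50 from a 4-parameter MMF fit.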

human CYP11B2 = target: T2, human CYP11B2 (Homo sapiens, UniProt P19099); experiment: G-402 cellular enzyme assay, human CYP11B2 (aldosterone release, HTRF); format: cell-based; details: G-402 cells expressing human CYP11B2; 1 μM Deoxycorticosterone
T2 construct: expressed in transfected cells
T2 sequence (P19099 25-503): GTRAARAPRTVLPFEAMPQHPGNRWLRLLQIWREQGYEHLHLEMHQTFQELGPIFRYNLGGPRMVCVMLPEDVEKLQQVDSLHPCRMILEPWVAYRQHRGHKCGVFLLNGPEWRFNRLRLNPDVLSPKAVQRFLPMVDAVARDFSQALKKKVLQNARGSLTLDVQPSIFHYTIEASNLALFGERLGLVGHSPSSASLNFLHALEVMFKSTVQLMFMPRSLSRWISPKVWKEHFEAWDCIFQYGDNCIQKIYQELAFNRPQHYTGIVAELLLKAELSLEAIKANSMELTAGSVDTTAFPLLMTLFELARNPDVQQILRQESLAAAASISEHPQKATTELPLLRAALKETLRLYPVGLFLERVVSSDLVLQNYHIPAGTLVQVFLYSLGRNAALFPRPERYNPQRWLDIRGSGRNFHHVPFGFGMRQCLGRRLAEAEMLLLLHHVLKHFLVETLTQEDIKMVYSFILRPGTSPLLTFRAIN
Method in brief: as §1

SMILES	EC50 (human CYP11B1)	EC50 (human CYP11B2)
CCS(=O)(=O)NCCOc1cncc(-c2cc3c(cc2F)N(C)C(=O)CC3)c1 [Example 243, Ethanesulfonic acid {2-[5-(7-fluoro-1-methyl-2-oxo-1,2,3,4-tetrahydro-quinolin-6-yl)-pyridin-3-yloxy]-ethyl}-amide]	26 nM	1 nM
CCC(=O)N(C)CCOc1cncc(-c2ccc3c(c2)CCC(=O)N3C)c1 [Example 197, N-Methyl-N-{2-[5-(1-methyl-2-oxo-1,2,3,4-tetrahydro-quinolin-6-yl)-pyridin-3-yloxy]-ethyl}-propionamide]	62 nM	4 nM
CN1C(=O)CCc2cc(-c3cncc(OCCNC(=O)c4ncccc4Cl)c3)ccc21 [Example 233, 3-Chloro-pyridine-2-carboxylic acid {2-[5-(1-methyl-2-oxo-1,2,3,4-tetrahydro-quinolin-6-yl)-pyridin-3-yloxy]-ethyl}-amide]	219 nM	13 nM
CN1C(=O)CCc2cc(-c3cncc(CNC(=O)c4cnoc4C4CC4)c3)ccc21 [Example 107]	44 nM	2 nM
CCS(=O)(=O)NCc1cncc(-c2cc3c4c(c2)CCN4C(=O)CC3)c1 [Example 234, Ethanesulfonic acid [5-(4-oxo-1,2,5,6-tetrahydro-4H-pyrrolo[3,2,1-ij]quinolin-8-yl)-pyridin-3-ylmethyl]-amide]	2260 nM	27 nM
CN1C(=O)CCc2cc(-c3cncc(CN4CCCCC4=O)c3)ccc21 [Example 19]	800 nM	23 nM
COc1ccc(S(=O)(=O)NCc2cncc(-c3ccc4c(c3)CCC(=O)N4C)c2)cn1 [Example 153, 6-Methoxy-pyridine-3-sulfonic acid [5-(1-methyl-2-oxo-1,2,3,4-tetrahydro-quinolin-6-yl)-pyridin-3-ylmethyl]-amide]	11100 nM	375 nM
CCS(=O)(=O)NC(C)c1cncc(-c2ccc3c(c2)CCC(=O)N3C)c1 (single isomer, unassigned) [Example 174, Ethanesulfonic acid {(S or R)-1-[5-(1-methyl-2-oxo-1,2,3,4-tetrahydro-quinolin-6-yl)-pyridin-3-yl]-ethyl}-amide]	1230 nM	33 nM
CCS(=O)(=O)N(C)Cc1cncc(-c2ccc3c(c2)CCC(=O)N3C)c1 [Example 182, Ethanesulfonic acid methyl-[5-(1-methyl-2-oxo-1,2,3,4-tetrahydro-quinolin-6-yl)-pyridin-3-ylmethyl]-amide]	302 nM	6 nM
CN1C(=O)CCc2cc(-c3cncc(C(C)(C)NC(=O)c4ncccc4Cl)c3)ccc21 [Example 138]	267 nM	3 nM
CN1C(=O)CCc2cc(-c3cncc(OCCN4CCCS4(=O)=O)c3)ccc21 [Example 189, 6-{5-[2-(1,1-Dioxo-1λ^6-isothiazolidin-2-yl)-ethoxy]-pyridin-3-yl}-1-methyl-3,4-dihydro-1H-quinolin-2-one]	93 nM	2 nM
CCC(=O)NC(C)c1cncc(-c2ccc3c(c2)CCC(=O)N3C)c1C (single isomer, unassigned) [Example 266, N-{(R or S)-1-[4-Methyl-5-(1-methyl-2-oxo-1,2,3,4-tetrahydro-quinolin-6-yl)-pyridin-3-yl]-ethyl}-propionamide]	623 nM	54 nM
CCC(=O)N1CC[C@@H](Oc2cncc(-c3ccc4c(c3)CCC(=O)N4C)c2)C1 [Example 121]	1370 nM	19 nM
CN(Cc1cncc(-c2cc3c4c(c2)CCN4C(=O)CC3)c1)C(=O)c1ncccc1Cl [Example 237, 3-Chloro-pyridine-2-carboxylic acid methyl-[5-(4-oxo-1,2,5,6-tetrahydro-4H-pyrrolo[3,2,1-ij]quinolin-8-yl)-pyridin-3-ylmethyl]-amide]	143 nM	8 nM
CN1C(=O)CCc2cc(-c3cncc(NCc4ccccc4)n3)ccc21 [Example 25]	110 nM	5 nM
CCC(=O)N1CCC[C@H](Oc2cncc(-c3ccc4c(c3)CCC(=O)N4C)c2)C1 [Example 81]	4640 nM	172 nM
CN1C(=O)CCc2cc(-c3cncc(CNS(=O)(=O)C4CC4)c3)ccc21 [Example 155, Cyclopropanesulfonic acid [5-(1-methyl-2-oxo-1,2,3,4-tetrahydro-quinolin-6-yl)-pyridin-3-ylmethyl]-amide]	589 nM	47 nM

SMILES	EC50 (human CYP11B1)	EC50 (human CYP11B2)
CN1C(=O)CCc2cc(-c3cncc(CN)c3)ccc21 [Example 36, 6-(5-Aminomethyl-pyridin-3-yl)-1-methyl-3,4-dihydro-1H-quinolin-2-one]	2570 nM	71 nM
Cc1cc(C(=O)NCc2cncc(-c3ccc4c(c3)CCC(=O)N4C)c2)c(Cl)nn1 [Example 105]	2580 nM	86 nM
CN1C(=O)CCc2cc(-c3cncc(CN4CCC[C@H]4COCC(F)(F)F)c3)ccc21 [Example 23]	390 nM	32 nM
CCS(=O)(=O)NCc1cncc(-c2ccc3c(c2)CCC(=O)N3C)c1Cl [Example 193, Ethanesulfonic acid [4-chloro-5-(1-methyl-2-oxo-1,2,3,4-tetrahydro-quinolin-6-yl)-pyridin-3-ylmethyl]-amide]	1010 nM	22 nM
CN1C(=O)CCc2cc(-c3cncc(CNC(=O)c4ncc(C(F)(F)F)cn4)c3)ccc21 [Example 123]	2920 nM	62 nM
CN1C(=O)CCc2cc(-c3cncc(NCCO)n3)c(F)cc21 [Example 26]	570 nM	18 nM
CN1C(=O)CCc2cc(-c3cncc(C4=CN(C(=O)OC(C)(C)C)CCC4)c3)ccc21 [Example 231, 5′-(1-Methyl-2-oxo-1,2,3,4-tetrahydro-quinolin-6-yl)-5,6-dihydro-4H-[3,3′]bipyridinyl-1-carboxylic acid tert-butyl ester]	802 nM	19 nM
CCS(=O)(=O)NC(C)(C)c1cncc(-c2ccc3c(c2)CCC(=O)N3C)c1 [Example 183, Ethanesulfonic acid {1-methyl-1-[5-(1-methyl-2-oxo-1,2,3,4-tetrahydro-quinolin-6-yl)-pyridin-3-yl]-ethyl}-amide]	268 nM	4 nM
CN1C(=O)CCc2cc(-c3cncc(CNC(=O)c4cc(Cl)nnc4Cl)c3)c(F)cc21 [Example 132]	4800 nM	29 nM
CC(N[S@+]([O-])C(C)(C)C)c1cncc(-c2ccc3c(c2)CCC(=O)N3C)c1 (single isomer, unassigned) [Example 57, (R)-2-Methyl-propane-2-sulfinic acid {(R or S)-1-[5-(1-methyl-2-oxo-1,2,3,4-tetrahydro-quinolin-6-yl)-pyridin-3-yl]-ethyl}-amide]	393 nM	26 nM
Cc1nnc(C(=O)NCc2cncc(-c3ccc4c(c3)CCC(=O)N4C)c2)o1 [Example 80]	493 nM	43 nM
CCS(=O)(=O)NC(C)c1cncc(-c2cc3c(cc2F)N(C)C(=O)CC3)c1 (single isomer, unassigned) [Example 190, Ethanesulfonic acid {(R or S)-1-[5-(7-fluoro-1-methyl-2-oxo-1,2,3,4-tetrahydro-quinolin-6-yl)-pyridin-3-yl]-ethyl}-amide]	442 nM	7 nM
CN1C(=O)CCc2cc(-c3cncc(CNC(=O)c4cc(Cl)nnc4Cl)c3)ccc21 [Example 95]	1780 nM	17 nM
CN1C(=O)CCc2cc(-c3cncc(CNC(=O)c4ncccc4Cl)c3Cl)ccc21 [Example 220, 3-Chloro-pyridine-2-carboxylic acid [4-chloro-5-(1-methyl-2-oxo-1,2,3,4-tetrahydro-quinolin-6-yl)-pyridin-3-ylmethyl]-amide]	40 nM	2 nM
O=C1CCc2cc(-c3cncc(CNC(=O)c4ncccc4Cl)c3)cc(Cl)c2N1 [Example 204, 3-Chloro-pyridine-2-carboxylic acid [5-(8-chloro-2-oxo-1,2,3,4-tetrahydro-quinolin-6-yl)-pyridin-3-ylmethyl]-amide]	2240 nM	20 nM
Cc1oncc1C(=O)NCc1cncc(-c2cc3c(cc2F)N(C)C(=O)CC3)c1C [Example 259, 5-Methyl-isoxazole-4-carboxylic acid [5-(7-fluoro-1-methyl-2-oxo-1,2,3,4-tetrahydro-quinolin-6-yl)-4-methyl-pyridin-3-ylmethyl]-amide]	154 nM	1 nM
